CN(C)CCn1[nH]nnc1=S
Details	solubility (mole fraction)
in DMF, 293.45 K	0.000803
in DMF, 298.34 K	0.000875
in DMF, 303.35 K	0.00105
in DMF, 308.38 K	0.00122
in DMF, 313.25 K	0.00146
in DMF, 318.22 K	0.00179
in DMF, 323.2 K	0.00212
in DMF, 328.12 K	0.00253
in DMF, 333.3 K	0.00297
in DMF, 338.22 K	0.00335
in DMF, 345.15 K	0.00393
in ethanol, 293.25 K	5.34e-05
in ethanol, 298.15 K	6.16e-05
in ethanol, 302.95 K	7.31e-05
in ethanol, 308.1 K	8.48e-05
in ethanol, 312.94 K	9.91e-05
in ethanol, 318.15 K	0.000118
in ethanol, 322.55 K	0.000133
in ethanol, 327.45 K	0.000156
in ethanol, 332.55 K	0.000181
in ethanol, 338.05 K	0.000206
in ethanol, 342.2 K	0.000227
in isopropanol, 293.15 K	3.47e-05
in isopropanol, 298.28 K	4.15e-05
in isopropanol, 303.35 K	4.8e-05
in isopropanol, 308.14 K	5.43e-05
in isopropanol, 313.25 K	6.15e-05
in isopropanol, 318.2 K	6.96e-05
in isopropanol, 323.25 K	7.96e-05
in isopropanol, 328.16 K	9.09e-05
in isopropanol, 333.35 K	0.000106
in isopropanol, 338.32 K	0.000123
in isopropanol, 343.45 K	0.000144
in methanol, 293.05 K	0.000156
in methanol, 298.17 K	0.000186
in methanol, 303.15 K	0.000219
in methanol, 308.2 K	0.000254
in methanol, 313.05 K	0.000291
in methanol, 318.24 K	0.000348
in methanol, 323.25 K	0.000414
in methanol, 328.23 K	0.000485
in methanol, 333.15 K	0.000571
in n-butanol, 293.15 K	6.11e-05
in n-butanol, 298.21 K	6.93e-05
in n-butanol, 303.35 K	7.66e-05
in n-butanol, 308.14 K	8.49e-05
in n-butanol, 313.05 K	9.47e-05
in n-butanol, 318.28 K	0.000103
in n-butanol, 323 K	0.000112
in n-butanol, 328.14 K	0.000126
in n-butanol, 333.05 K	0.000141
in n-butanol, 338.12 K	0.000158
in n-butanol, 343.1 K	0.000179
in n-propanol, 293.17 K	5.79e-05
in n-propanol, 298.14 K	7.34e-05
in n-propanol, 303.25 K	8.52e-05
in n-propanol, 308.12 K	0.000107
in n-propanol, 313.15 K	0.000127
in n-propanol, 318.23 K	0.00014
in n-propanol, 323.2 K	0.000161
in n-propanol, 328.34 K	0.000176
in n-propanol, 332.95 K	0.000189
in n-propanol, 338.18 K	0.000216
in n-propanol, 343.16 K	0.000241
in sec-butanol, 293.35 K	3.16e-05
in sec-butanol, 298.37 K	3.49e-05
in sec-butanol, 303.25 K	4.12e-05
in sec-butanol, 308.24 K	4.36e-05
in sec-butanol, 313.15 K	4.84e-05
in sec-butanol, 318.12 K	6.19e-05
in sec-butanol, 323 K	7.52e-05
in sec-butanol, 327.33 K	9.18e-05
in sec-butanol, 330.85 K	0.00011
in sec-butanol, 335.57 K	0.000133
in sec-butanol, 340.5 K	0.000165
in water, 293.15 K	0.00421
in water, 298.12 K	0.00516
in water, 303.15 K	0.00636
in water, 308.22 K	0.008
in water, 313.35 K	0.0101
in water, 318.28 K	0.0127
in water, 323.35 K	0.0161
in water, 328.24 K	0.0199
in water, 333.35 K	0.0246
in water, 338.21 K	0.0303
in water, 343.3 K	0.0371

— BigSolDB 2.1
